Experiments:
[1] = system: RD-ES (Ewing's sarcoma) xenografts; assay: Xenograft efficacy study in mice; assay type: in vivo; details: RD-ES xenograft model
Source text: Although proliferation of SK-ES-1 and SJCRH30 cells was inhibited by MEDI-573 in vitro in the absence of exogenous IGFs, the in vivo growth of these two models was not effected by MEDI-573 treatment.
The combination treatments were tolerated as no significant body weight loss was observed (FIG. 17B).
For in vivo efficacy studies, five million sarcoma cells in 50% matrigel were inoculated subcutaneously into each female athymic nude mice. When tumors reach approximately 150-200 mm^3, mice were randomly assigned into groups (10 mice per group). MEDI-573 was administrated intraperitoneally twice per week at indicated doses. The dose regimen for AZD2014 was oral once every day, for rapamycin was intraperitoneal injection every 3 days. Tumor volumes were measured twice weekly with calipers. Tumor growth inhibition was calculated on the last day of study relative to the initial and final mean tumor volume of the control group.

[2] = system: RD-ES cells; assay: Cytotoxicity assay, MEDI-573 and mTOR inhibitors; assay type: cell-based; details: agents alone or in combination (FIG. 14)
[3] = system: pS6K; assay: Immunoblot of cell lysates after MEDI-573, mTORi, combination; assay type: cell-based
Description: (§1) To examine the effect of MEDI-573, mTORi, and combination of both on IGF signaling, RD-ES, SJSA-1, and KHOS cells were treated with these agents for 4 hours. After separation of the cell lysates by gel electrophoresis, the proteins were detected by immunoblotting.

[4] = system: p4EBP1; assay: as above; assay type: cell-based; details: single agent, 4 hours
Description: as §1

[5] = system: pAKT; assay: as above; assay type: cell-based; details: all 3 cell lines, 4 hours
Description: as §1

Row | SMILES | tumor growth inhibition ([1]; AZD2014 combination study (FIG. 16A)) [%] | decrease in cell viability [2] [%] | phosphorylation of pS6K ([3]; RD-ES cells) | phosphorylation of pS6K ([3]; SJSA-1 or KHOS cells) | tumor growth inhibition ([1]; rapamycin combination study (FIG. 17A)) [%] | phosphorylation of 4EBP1 [4] | phosphorylation of AKT [5] | pS6K ([3]; all 3 cell lines (RD-ES, SJSA-1, KHOS), 4 hours)
1 | CNC(=O)c1cccc(-c2ccc3c(N4CCOC[C@@H]4C)nc(N4CCOC[C@@H]4C)nc3n2)c1 [AZD2014] | 51 | 55 | inhibited phosphorylation of pS6K | did not inhibit phosphorylation of pS6K | – | – | – | –
2 | CO[C@H]1C[C@@H]2CC[C@@H](C)[C@@](O)(O2)C(=O)C(=O)N2CCCC[C@H]2C(=O)O[C@H]([C@H](C)C[C@@H]2CC[C@@H](O)[C@H](OC)C2)CC(=O)[C@H](C)/C=C(\C)[C@@H](O)[C@@H](OC)C(=O)[C@H](C)C[C@H](C)/C=C/C=C/C=C/1C [rapamycin] | – | 34 | – | – | 44 | did not have effect | induced phosphorylation of AKT | completely inhibited pS6K

Source: US20160324962A1, “COMPOSITIONS AND METHODS FOR TREATING SARCOMA” (MEDIMMUNE, LLC, priority 2013, published 2016)
